From ChEMBL document CHEMBL1124141, “(+/-)-9-Amino-1,2,3,4-tetrahydroacridin-1-ol. A potential Alzheimer's disease therapeutic of low toxicity” (J Med Chem, 1988)

Legend:
Acetylcholinesterase = target: T1, Acetylcholinesterase (Rattus norvegicus, UniProt P37136); assay: In vitro inhibitory activity against acetylcholinesterase using rat striatal preparations
T1 sequence (P37136 whole entry): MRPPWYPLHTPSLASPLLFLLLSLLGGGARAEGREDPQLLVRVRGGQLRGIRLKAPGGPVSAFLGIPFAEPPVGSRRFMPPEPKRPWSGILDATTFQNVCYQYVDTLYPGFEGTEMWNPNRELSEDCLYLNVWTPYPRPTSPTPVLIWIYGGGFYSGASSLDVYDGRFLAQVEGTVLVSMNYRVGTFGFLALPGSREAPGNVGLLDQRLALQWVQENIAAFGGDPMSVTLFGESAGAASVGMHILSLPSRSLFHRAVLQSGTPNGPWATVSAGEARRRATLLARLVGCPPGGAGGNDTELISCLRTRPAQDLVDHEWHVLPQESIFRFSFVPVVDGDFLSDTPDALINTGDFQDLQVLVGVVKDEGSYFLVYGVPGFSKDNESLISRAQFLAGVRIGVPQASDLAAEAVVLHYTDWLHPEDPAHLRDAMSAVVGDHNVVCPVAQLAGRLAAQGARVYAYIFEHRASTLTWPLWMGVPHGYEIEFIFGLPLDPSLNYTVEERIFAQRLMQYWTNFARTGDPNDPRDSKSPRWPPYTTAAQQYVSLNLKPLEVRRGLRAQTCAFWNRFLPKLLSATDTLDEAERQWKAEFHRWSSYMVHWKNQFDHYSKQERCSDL

[1] = Acute toxicity in mice was determined after oral administration; assay type: organism-based; details: mouse, in vivo
Mus musculus = species: Mus musculus; details: dose 0.63 mg/kg; route subcutaneous
Description: Reversal of scopolamine-induced memory impairment in mice, after subcutaneous administration of 0.63 mg/kg

For `Nc1c2c(nc3ccccc13)CCCC2O.O=C(O)/C=C\C(=O)O` (stereo not drawn) [VELNACRINE MALEATE], the IC50 (Acetylcholinesterase) was 4.8 µM, the LD50 [1] was 136 mg/kg and the Reversal (Mus musculus) was 33%.
